Patent publication US11352394B2, “Cyclic cell penetrating peptides comprising beta-hairpin motifs and methods of making and using thereof” (Ohio State Innovation Foundation, priority 2016, dated 2022)
Bridge positions count the residues as written; N and C are the ends. Square brackets hold non-standard residues; d marks the D form. Ends that are not written are not given here. Phe(4-F) = N[C@@H](Cc1ccc(F)cc1)C(=O)O; 2Nal = N[C@@H](Cc1ccc2ccccc2c1)C(=O)O; d2Nal = N[C@H](Cc1ccc2ccccc2c1)C(=O)O; Dap = NC[C@H](N)C(=O)O

Test system: HeLa cells
Assay: Cellular (cytosolic) uptake of NF-labeled peptides by flow cytometry (MFI)
Type: cell-based
Conditions: relative to CPP 1 (100%); mean ± S.D. of three independent experiments
Description: HeLa cells were treated with 5 μM peptide for 2 h, and their cell uptake efficiencies were determined by flow cytometry analysis. The mean fluorescence intensity (MFI) values derived from cytometry analyses reflect the amounts of peptides inside the cytosol and nucleus, whereas any NF-labeled peptide entrapped inside the acidic endosomes are invisible under the experimental conditions (Id.; Qian, Z et al. Chem. Commun. 2015, 51, 2162-2165).
The binding affinity of BH23 (unlabeled) for the Grb2 SH2 domain was then determined by examining its ability to compete with the FAM-labeled ligand for binding to the Grb2 SH2 domain by fluorescence polarization (FP). […] Next, BH23 was labeled with NF at the Asn side chain through a miniPEG-Lys linker and its cytosolic entry efficiency was quantitated by treating HeLa cells with 5 μM of the labeled peptide for 2 h before flow cytometry analysis. […] BH23 was also similarly labeled at the Asn side chain with FAM and its entry into HeLa cells was examined by live-cell confocal microscopy. […] Two control peptides (BH24 and BH25) were also prepared for cellular assays. BH24 and BH25 are structurally similar to BH23, except that BH24 contained a Tyr instead of the pY residue (FIG. 11), whereas in BH25 the two hydrophobic residues critical for cellular uptake (Nal-arg) were replaced with Ala-ala (FIG. 12).
BHT1 and BHT2 were labeled with naphthofluorescein (NF) and their cytosolic uptake into HeLa cells was determined by flow cytometry (Table 10).
Additional cell penetrating compounds were prepared and tested for cytosolic delivery. In these compounds there was no beta-hairpin turn creating moiety.

Substance	Cellular Uptake (MFI^NF, %), cytosolic delivery efficiency of CPPs without beta-hairpin moiety
131 (cyclo(F[2Nal]RRRRQ); SMILES N=C(N)NCCC[C@@H]1NC(=O)[C@H](CCCNC(=N)N)NC(=O)[C@H](CCCNC(=N)N)NC(=O)[C@H](Cc2ccc3ccccc3c2)NC(=O)[C@H](Cc2ccccc2)NC(=O)[C@H](CCC(N)=O)NC(=O)[C@H](CCCNC(=N)N)NC1=O) [Peptide 131]	100 ± 6%
234 (FFRRRQ; cyclic) [Peptide 234]	65%
235 (cyclo(FF[dR]R[dR]Q); SMILES N=C(N)NCCC[C@@H]1NC(=O)[C@@H](CCCNC(=N)N)NC(=O)[C@H](Cc2ccccc2)NC(=O)[C@H](Cc2ccccc2)NC(=O)[C@H](CCC(N)=O)NC(=O)[C@@H](CCCNC(=N)N)NC1=O) [Peptide 235]	122%
236 (cyclo(FFR[dR]RQ); SMILES N=C(N)NCCC[C@@H]1NC(=O)[C@H](Cc2ccccc2)NC(=O)[C@H](Cc2ccccc2)NC(=O)[C@H](CCC(N)=O)NC(=O)[C@H](CCCNC(=N)N)NC(=O)[C@@H](CCCNC(=N)N)NC1=O) [Peptide 236]	40%
237 (FRFRRQ; cyclic) [Peptide 237]	15 ± 3%
238 (FRRFRQ; cyclic) [Peptide 238]	38 ± 10%
239 (FRRRFQ; cyclic) [Peptide 239]	25 ± 4%
240 (cyclo(G[2Nal]RRRQ); SMILES N=C(N)NCCC[C@@H]1NC(=O)[C@H](Cc2ccc3ccccc3c2)NC(=O)CNC(=O)[C@H](CCC(N)=O)NC(=O)[C@H](CCCNC(=N)N)NC(=O)[C@H](CCCNC(=N)N)NC1=O) [Peptide 240]	49 ± 5%
241 (FFFRAQ; cyclic) [Peptide 241]	52 ± 2%
242 (FFFRRQ; cyclic) [Peptide 242]	125 ± 25%
243 (FFRRRRQ; cyclic) [Peptide 243]	89 ± 27%
244 (FRRFRRQ; cyclic) [Peptide 244]	31 ± 3%
245 (FRRRFRQ; cyclic) [Peptide 245]	20 ± 3%
246 (RFFRRRQ; cyclic) [Peptide 246]	63 ± 19%
247 (RFRRFRQ; cyclic) [Peptide 247]	94 ± 9%
248 (FRFRRRQ; cyclic) [Peptide 248]	132 ± 57%
249 (FFFRRRQ; cyclic) [Peptide 249]	231 ± 43%
250 (FFRRRFQ; cyclic) [Peptide 250]	158 ± 21%
252 (RRFFFRQ; cyclic) [Peptide 252]	172 ± 24%
253 (FFRFRRQ; cyclic) [Peptide 253]	106 ± 22%
254 (FFRRFRQ; cyclic) [Peptide 254]	86 ± 12%
255 (FRRFFRQ; cyclic) [Peptide 255]	109 ± 11%
256 (FRRFRFQ; cyclic) [Peptide 256]	101 ± 16%
257 (FRFRFRQ; cyclic) [Peptide 257]	105 ± 14%
258 (RFFRFRQ; cyclic) [Peptide 258]	96 ± 31%
259 (cyclo(G[2Nal]RRRRQ); SMILES N=C(N)NCCC[C@@H]1NC(=O)[C@H](Cc2ccc3ccccc3c2)NC(=O)CNC(=O)[C@H](CCC(N)=O)NC(=O)[C@H](CCCNC(=N)N)NC(=O)[C@H](CCCNC(=N)N)NC(=O)[C@H](CCCNC(=N)N)NC1=O) [Peptide 259]	55 ± 5%

Substance	Cellular Uptake (MFI^NF, %), cytosolic delivery efficiency of CPPs without beta-hairpin moiety
260 (FFFRRRRQ; cyclic) [Peptide 260]	122 ± 20%
261 (RFFRRRRQ; cyclic) [Peptide 261]	104 ± 5%
262 (RRFFRRRQ; cyclic) [Peptide 262]	115 ± 20%
263 (RFFFRRRQ; cyclic) [Peptide 263]	167 ± 10%
264 (RRFFFRRQ; cyclic) [Peptide 264]	112 ± 20%
265 (FFRRFRRQ; cyclic) [Peptide 265]	46 ± 2%
266 (FFRRRRFQ; cyclic) [Peptide 266]	162 ± 16%
267 (FRRFFRRQ; cyclic) [Peptide 267]	127 ± 22%
268 (FFFRRRRRQ; cyclic) [Peptide 268]	145 ± 27%
269 (FFFRRRRRRQ; cyclic) [Peptide 269]	141 ± 10%
270 (cyclo(F[2Nal]R[dR]R[dR]Q)) [Peptide 270]	212 ± 42%
271 (cyclo([Phe(4-F)][Phe(4-F)]RRRRQ); SMILES N=C(N)NCCC[C@@H]1NC(=O)[C@H](CCCNC(=N)N)NC(=O)[C@H](CCCNC(=N)N)NC(=O)[C@H](Cc2ccc(F)cc2)NC(=O)[C@H](Cc2ccc(F)cc2)NC(=O)[C@H](CCC(N)=O)NC(=O)[C@H](CCCNC(=N)N)NC1=O) [Peptide 271]	165 ± 22%
272 (cyclo(F[dF]FR[dR]RQ); SMILES N=C(N)NCCC[C@@H]1NC(=O)[C@H](Cc2ccccc2)NC(=O)[C@@H](Cc2ccccc2)NC(=O)[C@H](Cc2ccccc2)NC(=O)[C@H](CCC(N)=O)NC(=O)[C@H](CCCNC(=N)N)NC(=O)[C@@H](CCCNC(=N)N)NC1=O) [Peptide 272]	230 ± 18%
273 (cyclo([dF]F[dF][dR]R[dR]Q); SMILES N=C(N)NCCC[C@@H]1NC(=O)[C@@H](CCCNC(=N)N)NC(=O)[C@@H](Cc2ccccc2)NC(=O)[C@H](Cc2ccccc2)NC(=O)[C@@H](Cc2ccccc2)NC(=O)[C@H](CCC(N)=O)NC(=O)[C@@H](CCCNC(=N)N)NC1=O) [Peptide 273]	463 ± 94%
274 (cyclo([dF]F[dF]R[dR]RQ); SMILES N=C(N)NCCC[C@@H]1NC(=O)[C@@H](CCCNC(=N)N)NC(=O)[C@H](CCCNC(=N)N)NC(=O)[C@@H](Cc2ccccc2)NC(=O)[C@H](Cc2ccccc2)NC(=O)[C@@H](Cc2ccccc2)NC(=O)[C@H](CCC(N)=O)NC1=O) [Peptide 274]	359 ± 66%
275 (cyclo(F[dF]F[dR]R[dR]Q); SMILES N=C(N)NCCC[C@@H]1NC(=O)[C@@H](CCCNC(=N)N)NC(=O)[C@H](Cc2ccccc2)NC(=O)[C@@H](Cc2ccccc2)NC(=O)[C@H](Cc2ccccc2)NC(=O)[C@H](CCC(N)=O)NC(=O)[C@@H](CCCNC(=N)N)NC1=O) [Peptide 275]	236 ± 26%
276 (cyclo([dF]F[d2Nal][dR]R[dR]Q); also: further D-residues, places not given here) [Peptide 276]	250 ± 37%
277 (cyclo([dF][2Nal][dF][dR]R[dR]Q)) [Peptide 277]	267 ± 62%
278 (cyclo([d2Nal]F[dF][dR]R[dR]Q); also: further D-residues, places not given here) [Peptide 278]	50 ± 9%
279 (cyclo(F[2Nal][dR]R[dR]Q)) [Peptide 279]	76%
280 (cyclo([dF][2Nal][dR]R[dR]Q)) [Peptide 280]	214%
281 (Ac-K[dF]FR[dR]R[dR]D; lactam 1-8 (inferred); not fully specified; printed as Ac-(Lys-fFRrRrD)) [Peptide 281]	129 ± 9%
282 (Ac-[Dap][dF]FR[dR]R[dR]D; lactam 1-8 (inferred); not fully specified; printed as Ac-(Dap-fFRrRrD)) [Peptide 282]	126 ± 33%
283 (CWWRRRRC; disulfide 1-8) [Peptide 283]	51%
284 (CWWWRRRRC; disulfide 1-9) [Peptide 284]	67%
